In PubChem BioAssay (NCI):
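In this assay, cells in 96-well plates receive the compound at five concentrations for 48 hours. Endpoints are linearly interpolated between the surrounding concentrations. TGI: total growth inhibition.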

Tests used:
Experiment in all cases: NCI tumour cell line growth inhibition, 48 h
HCC-2998 colon = system: HCC-2998 colon
SF-268 CNS = system: SF-268 CNS
SN12C renal = system: SN12C renal
SK-MEL-5 melanoma = system: SK-MEL-5 melanoma
UO-31 renal = system: UO-31 renal
SK-MEL-28 melanoma = system: SK-MEL-28 melanoma
M14 melanoma = system: M14 melanoma
M19-MEL melanoma = system: M19-MEL melanoma
SF-295 CNS = system: SF-295 CNS
K-562 leukemia = system: K-562 leukemia
KM20L2 colon = system: KM20L2 colon
COLO 205 colon = system: COLO 205 colon
HOP-18 NSCLC = system: HOP-18 NSCLC
KM12 colon = system: KM12 colon
SNB-78 CNS = system: SNB-78 CNS
SF-539 CNS = system: SF-539 CNS
DMS 114 small cell lung = system: DMS 114 small cell lung
A498 renal = system: A498 renal
ACHN renal = system: ACHN renal
MALME-3M melanoma = system: MALME-3M melanoma
CCRF-CEM leukemia = system: CCRF-CEM leukemia
NCI-H522 lung = system: NCI-H522 lung
SNB-75 CNS = system: SNB-75 CNS
LOX IMVI melanoma = system: LOX IMVI melanoma
NCI-H460 lung = system: NCI-H460 lung
NCI-H226 lung = system: NCI-H226 lung
XF 498 CNS = system: XF 498 CNS
HOP-92 NSCLC = system: HOP-92 NSCLC
DLD-1 colon = system: DLD-1 colon
NCI-H23 lung = system: NCI-H23 lung
HL-60(TB) leukemia = system: HL-60(TB) leukemia
A549 NSCLC = system: A549 NSCLC
OVCAR-8 ovarian = system: OVCAR-8 ovarian
HCT-116 colon = system: HCT-116 colon
SW-620 colon = system: SW-620 colon
RXF 393 renal = system: RXF 393 renal
OVCAR-5 ovarian = system: OVCAR-5 ovarian
U251 CNS = system: U251 CNS
OVCAR-4 ovarian = system: OVCAR-4 ovarian
RPMI-8226 leukemia = system: RPMI-8226 leukemia
786-0 renal = system: 786-0 renal
TK-10 renal = system: TK-10 renal
OVCAR-3 ovarian = system: OVCAR-3 ovarian
SR leukemia = system: SR leukemia
UACC-257 melanoma = system: UACC-257 melanoma
DMS 273 small cell lung = system: DMS 273 small cell lung
CAKI-1 renal = system: CAKI-1 renal
IGROV1 ovarian = system: IGROV1 ovarian
SK-OV-3 ovarian = system: SK-OV-3 ovarian
SNB-19 CNS = system: SNB-19 CNS
SK-MEL-2 melanoma = system: SK-MEL-2 melanoma
EKVX NSCLC = system: EKVX NSCLC
UACC-62 melanoma = system: UACC-62 melanoma
HT29 colon = system: HT29 colon
HCT-15 colon = system: HCT-15 colon
MOLT-4 leukemia = system: MOLT-4 leukemia
LXFL 529 NSCLC = system: LXFL 529 NSCLC
HOP-62 NSCLC = system: HOP-62 NSCLC

With O=C(/C(=C\c1ccccc1)CN1CCOCC1)c1ccc(Br)cc1 the TGI (HCC-2998 colon) was 29.6 µM, the TGI (SF-268 CNS) was 9.9 µM and the TGI (SN12C renal) was 4.35 µM. The TGI (SK-MEL-5 melanoma) was 4.08 µM, the TGI (UO-31 renal) was 3.29 µM and the TGI (SK-MEL-28 melanoma) was 3.85 µM. It also gave a TGI (M14 melanoma) of 3.27 µM, a TGI (M19-MEL melanoma) of 3.43 µM and a TGI (SF-295 CNS) of 15.6 µM. It also gave a TGI (K-562 leukemia) of 15.9 µM, a TGI (KM20L2 colon) of 7.12 µM and a TGI (COLO 205 colon) of 7.71 µM. The TGI (HOP-18 NSCLC) was 3.85 µM, the TGI (KM12 colon) was 3.74 µM and the TGI (SNB-78 CNS) was 20.6 µM. The TGI (SF-539 CNS) was 5.9 µM, the TGI (DMS 114 small cell lung) was 4.5 µM and the TGI (A498 renal) was 12.3 µM. It also gave a TGI (ACHN renal) of 3.42 µM, a TGI (MALME-3M melanoma) of 3.31 µM and a TGI (CCRF-CEM leukemia) of 11.1 µM. The TGI (NCI-H522 lung) was 2.59 µM, the TGI (SNB-75 CNS) was 24.9 µM and the TGI (LOX IMVI melanoma) was 3.22 µM. It also gave a TGI (NCI-H460 lung) of 8.79 µM, a TGI (NCI-H226 lung) of 12.7 µM and a TGI (XF 498 CNS) of 9.72 µM. The TGI (HOP-92 NSCLC) was 10.8 µM, the TGI (DLD-1 colon) was 3.13 µM and the TGI (NCI-H23 lung) was 8.48 µM. For the same compound, the TGI (HL-60(TB) leukemia) was 4.48 µM, the TGI (A549 NSCLC) was 17 µM and the TGI (OVCAR-8 ovarian) was 3.34 µM. The TGI (HCT-116 colon) was 3.2 µM, the TGI (SW-620 colon) was 2.72 µM and the TGI (RXF 393 renal) was 5.99 µM. The TGI (OVCAR-5 ovarian) was 9.14 µM, the TGI (U251 CNS) was 6.34 µM and the TGI (OVCAR-4 ovarian) was 8.11 µM. The TGI (RPMI-8226 leukemia) was 10.7 µM, the TGI (786-0 renal) was 3.13 µM and the TGI (TK-10 renal) was 12.2 µM. It also gave a TGI (OVCAR-3 ovarian) of 6.93 µM, a TGI (SR leukemia) of 17.4 µM and a TGI (UACC-257 melanoma) of 8.93 µM. For the same compound, the TGI (DMS 273 small cell lung) was 6.47 µM, the TGI (CAKI-1 renal) was 3.95 µM and the TGI (IGROV1 ovarian) was 9.32 µM. It also gave a TGI (SK-OV-3 ovarian) of 11.2 µM, a TGI (SNB-19 CNS) of 12.7 µM and a TGI (SK-MEL-2 melanoma) of 3.74 µM. The TGI (EKVX NSCLC) was 9.47 µM, the TGI (UACC-62 melanoma) was 2.98 µM and the TGI (HT29 colon) was 4.56 µM. The TGI (HCT-15 colon) was 4.22 µM, the TGI (MOLT-4 leukemia) was 19 µM and the TGI (LXFL 529 NSCLC) was 4.67 µM. The TGI (HOP-62 NSCLC) was 13.1 µM.

Compound Cc1cccc(C)c1NC(=O)C(=O)C(C#N)c1ccccc1Cl (stereo not given) has a TGI (HCC-2998 colon) greater than 100 µM, a TGI (SF-268 CNS) greater than 100 µM and a TGI (SN12C renal) greater than 100 µM. The TGI (SK-MEL-5 melanoma) was greater than 100 µM, the TGI (UO-31 renal) was greater than 100 µM and the TGI (SK-MEL-28 melanoma) was greater than 100 µM. The TGI (M14 melanoma) was greater than 100 µM, the TGI (M19-MEL melanoma) was greater than 100 µM and the TGI (SF-295 CNS) was greater than 100 µM. It also gave a TGI (K-562 leukemia) greater than 100 µM, a TGI (KM20L2 colon) greater than 100 µM and a TGI (COLO 205 colon) greater than 100 µM. It also gave a TGI (HOP-18 NSCLC) greater than 100 µM, a TGI (KM12 colon) greater than 100 µM and a TGI (SNB-78 CNS) greater than 100 µM. The TGI (SF-539 CNS) was greater than 100 µM, the TGI (DMS 114 small cell lung) was greater than 100 µM and the TGI (A498 renal) was greater than 100 µM. It also gave a TGI (ACHN renal) greater than 100 µM, a TGI (MALME-3M melanoma) greater than 100 µM and a TGI (CCRF-CEM leukemia) greater than 100 µM. The TGI (NCI-H522 lung) was greater than 100 µM, the TGI (SNB-75 CNS) was greater than 100 µM and the TGI (NCI-H460 lung) was greater than 100 µM. For the same compound, the TGI (NCI-H226 lung) was greater than 100 µM, the TGI (XF 498 CNS) was greater than 100 µM and the TGI (HOP-92 NSCLC) was greater than 100 µM. For the same compound, the TGI (DLD-1 colon) was greater than 100 µM, the TGI (NCI-H23 lung) was greater than 100 µM and the TGI (HL-60(TB) leukemia) was greater than 100 µM. The TGI (A549 NSCLC) was greater than 100 µM, the TGI (OVCAR-8 ovarian) was greater than 100 µM and the TGI (HCT-116 colon) was greater than 100 µM. The TGI (SW-620 colon) was greater than 100 µM, the TGI (RXF 393 renal) was greater than 100 µM and the TGI (OVCAR-5 ovarian) was greater than 100 µM. For the same compound, the TGI (U251 CNS) was greater than 100 µM, the TGI (OVCAR-4 ovarian) was greater than 100 µM and the TGI (RPMI-8226 leukemia) was greater than 100 µM. The TGI (786-0 renal) was greater than 100 µM, the TGI (TK-10 renal) was greater than 100 µM and the TGI (OVCAR-3 ovarian) was greater than 100 µM. For the same compound, the TGI (SR leukemia) was greater than 100 µM, the TGI (UACC-257 melanoma) was greater than 100 µM and the TGI (DMS 273 small cell lung) was greater than 100 µM. The TGI (CAKI-1 renal) was greater than 100 µM, the TGI (IGROV1 ovarian) was greater than 100 µM and the TGI (SK-OV-3 ovarian) was greater than 100 µM. For the same compound, the TGI (SNB-19 CNS) was greater than 100 µM, the TGI (SK-MEL-2 melanoma) was greater than 100 µM and the TGI (EKVX NSCLC) was greater than 100 µM. For the same compound, the TGI (UACC-62 melanoma) was greater than 100 µM, the TGI (HT29 colon) was greater than 100 µM and the TGI (HCT-15 colon) was greater than 100 µM. It also gave a TGI (MOLT-4 leukemia) greater than 100 µM, a TGI (LXFL 529 NSCLC) greater than 100 µM and a TGI (HOP-62 NSCLC) greater than 100 µM.
